# Data taken from patent publication US12600725B2 (Memorial Sloan-Kettering Cancer Center, priority 2013, dated 2026).
# Like-named read-outs stand apart in the source and are kept apart here.
# Columns and labels:
# [1] = test system: Hsp70 induction in HEK293 cells; experiment: Hsp70 induction in HA-TLR9 transfected HEK293 cells; format: cell-based, human; settings: 24 h
# Experimental: Cell fractionation and immunoblotting. Cells were either treated with DMSO (vehicle) or indicated compounds for 24 hr and lysed in RIPA buffer (50 mM Tris-HCl, pH 7.4, 150 mM NaCl, 0.5% sodium deoxycholate and 0.5% NP40) supplemented with cocktail protease inhibitors (Roche) to produce whole cell lysates. Lysates for cytosol and membrane fractions were harvested using ProteoExtract Subcellular Proteome Extraction Kit (Calbiochem) following the manufacturer's instructions. Protein concentrations were determined using BCA kit (Pierce) according to the manufacturer's instructions. The protein lysates ([…]) were electrophoretically resolved by SDS-PAGE, transferred onto nitrocellulose membranes and probed with the indicated primary antibodies against: HER^2 (Zymed, 28004), Hsp70 (Stressgen, SPA-810), Grp94 (Stressgen, SPA-850), Hsp90α (Abcam, Ab2928), Hsp90β (StressMarq, SMC-107B), Grp78 (Cell Signaling, 3183), Raf-1 (Santa Cruz, sc-133), phospho-Raf-1 (Cell Signaling, 9421), MEK1/2 (Cell Signaling, 8727), phospho-MEK1/2 (Cell Signaling, 9154), ERK1/2 (Cell Signaling, 4695), phospho-ERK1/2 (Cell Signaling, 4370), AKT (Cell Signaling, 9272), GM130 (Cell Signaling, 2296), Flotillin 2 (Cell Signaling, 3436), Histone H4 (Cell Signaling, 2592), Histone H1 (Santa Cruz, sc-8030), Caspase 3 (Cell Signaling, 9665), cleaved PARP (Promega, G7341), a-tubulin (Sigma, T5168) and 3-actin (Sigma, A1978). After washing off the excess antibodies, the membranes were incubated with the corresponding horseradish peroxidase (HRP) conjugated secondary antibody. Blots were visualized by autoradiography using the Enhanced Chemiluminescence Detection System (GE Healthcare) according to manufacturer's instructions. […]
# TLR^9-trafficking assay (Yang, Y. et al. Heat shock protein gp96 is a master chaperone for toll-like receptors and is important in the innate function of macrophages. Immunity 26, 215-26 (2007)). […] Fluorescence intensity was quantified using MetaMorph Microscopy Automation and Image Analysis Software (Molecular Devices Inc.) and normalized to the cell number.
# OE19 cells = experiment: Cell viability assessment (CellTiter-Glo); format: cell-based
# 97 kinases = experiment: Kinase screen (Discoverx scanEDGE / KINOMEscan); format: binding; settings: tested at 10 uM
# C2C12 cells = experiment: Viability of C2C12 cells visualized by light microscopy; format: cell-based, mouse; settings: 24 h
# in vivo = experiment: in vivo; parameters: species or system mouse
# [2] = test system: EGFR overexpressing triple negative breast cancer cells; experiment: Apoptosis (Annexin V / 7AAD, cleaved PARP) in triple negative breast cancer cells; format: cell-based
# Experimental: The Grp94 inhibitors of the disclosure can be used to treat patients with EGFR overexpressing triple negative breast cancer. As shown in FIGS. 13a-c, EGFR overexpressing triple negative breast cancer cells are sensitive to the selective Grp94 inhibitor PU-WS13. The sensitivity of the EGFR overexpressing triple negative breast cancer cells was tested for the presence of apoptotic cells by Annexin V staining (13a, 13b) and by immunoblotting for the presence of cleaved PARP (13c). […] The Grp94 inhibitors of the disclosure can be used to treat patients with EGFR overexpressing pancreatic cancer. […]
# Cell fractionation and immunoblotting. […] Protein concentrations were determined using BCA kit (Pierce) according to the manufacturer's instructions. […]
# Cell cycle and apoptosis assessment. Cell cycle and apoptosis were assessed by flow cytometry after single staining with propidium iodide (PI, BD Pharmingen) or double staining with AnnexinV-FITC (BD Pharmingen) and 7AAD (BD Pharmingen), respectively. […] DNA content was measured by BD LSRII flow cytometer and cell further analyzed using program of cell cycle analysis in FloJo (Ashland, OR). […] Signals from FL1 and FL3 channels were collected by MACSQuant analyzer and further analyzed using FloJo. […]
# LRP6 in the normal GI = experiment: PD analysis of normal GI tissues (Western blot); format: in vivo, mouse
# MKN74 cells = experiment: Cell viability assessment (CellTiter-Glo); format: cell-based
structure (smiles),measurement,setting,value
CC(C)NCCCn1c(Sc2cc(Cl)cc(Cl)c2)nc2c(N)ncnc21 [PU-WS13],Hsp70 induction,[1],fails to induce Hsp70
same,sensitivity to Grp94 inhibition,OE19 cells,highly susceptible
same,effect on the tested 97 kinases,97 kinases,no significant effect
same,toxicity to C2C12 cells,C2C12 cells,not toxic
same,AUC0-24h for stomach relative to tumor AUC0-24h,in vivo; 75 mg/kg ip,1.4 fold
same,AUC0-24h for the large intestine relative to tumor AUC0-24h,in vivo; 75 mg/kg ip,2 fold
same,concentration at 2 h,"in vivo; female, nu/nu athymic, mouse, plasma, intraperitoneal, 75 mg/kg ip, read-out: PU-WS13 level in the plasma",100 µM
same,AUC(0-t),"in vivo; female, nu/nu athymic, mouse, plasma, 75 mg/kg ip, read-out: AUC0-24 h plasma",1260 µM·h
same,concentration at 2 h,"in vivo; female, nu/nu athymic, mouse, tumor, intraperitoneal, 75 mg/kg ip, read-out: PU-WS13 level in tumor",~850 µM
same,concentration at 24 h,"in vivo; female, nu/nu athymic, mouse, tumor, intraperitoneal, single dose of 75 mg/kg, 24 h post-administration",0.5 µM
same,AUC(0-t),"in vivo; female, nu/nu athymic, mouse, tumor, 75 mg/kg ip, read-out: AUC0-24 h tumor",9130 µM·h
same,"sensitivity (apoptosis, cleaved PARP)",[2],sensitive
same,LRP6 levels in normal GI,LRP6 in the normal GI; 75 mg/kg,could not detect a significant decrease in LRP6
same,LRP6 levels in normal GI,LRP6 in the normal GI; 150 mg/kg,no acute tox or change in LRP6 levels
same,sensitivity to Grp94 inhibition,MKN74 cells,not sensitive
